# Where two headings read alike, the source gives them in different places.
# Experiments:
# [1] = rat, in vivo, cited from earlier work
# [2] = physchem; conditions: %Recovery (stability)
# [3] = Tissue distribution, tissue to plasma ratio (Kp) in rats; assay type: in vivo
# [4] = rat, in vivo, ip, 40 mg/kg; cited from earlier work
# [5] = in vivo; conditions: rat
# Protocol: Rats weighing more than 400 g were enrolled in the pharmacokinetic experiments. All rats were placed into metabolic cages and fasted overnight before the pharmacokinetic experiments. The rats were divided randomly into four groups (n = 6 in each): oxyresveratrol 100 mg/kg p.o., oxyresveratrol 100 mg/kg plus piperine 10 mg/kg p.o., oxyresveratrol 10 mg/kg i.v., and oxyresveratrol 10 mg/kg plus piperine 1 mg/kg i.v. All test formulations were freshly prepared by dissolving the compounds in 40% DMSO/NSS to obtain clear solution. The preparations were administered by oral gavage or intravenous administration via the lateral tail vein. […] Plasma samples were collected at baseline (0 h) and 24 h from a subset of rats for determination of AST, ALT and creatinine concentrations, performed by Professional Laboratory Management Crop Co., Ltd. Determination of the creatinine level was performed by the chemiluminescence method, while AST and ALT determination was performed with a kinetic method and measured using an automated analyzer (Cobas 6000; Hoffmann–La Roche, Ltd.). […]
# The pharmacokinetic parameters were calculated by non–compartmental analysis using PK Solution 2.0 software (Summit Research Service). […] The absolute oral bioavailability of oxyresveratrol was calculated as (AUCp.o./dosep.o.)/(AUCi.v./dosei.v.). […]
# [6] = system: P–glycoprotein; conditions: cited from earlier work
# [7] = system: male Wistar rats; test: Tolerability in rats (AST, ALT, creatinine, physical appearance); assay type: in vivo, rat
# Protocol: Rats weighing more than 400 g were enrolled in the pharmacokinetic experiments. All rats were placed into metabolic cages and fasted overnight before the pharmacokinetic experiments. The rats were divided randomly into four groups (n = 6 in each): oxyresveratrol 100 mg/kg p.o., oxyresveratrol 100 mg/kg plus piperine 10 mg/kg p.o., oxyresveratrol 10 mg/kg i.v., and oxyresveratrol 10 mg/kg plus piperine 1 mg/kg i.v. All test formulations were freshly prepared by dissolving the compounds in 40% DMSO/NSS to obtain clear solution. The preparations were administered by oral gavage or intravenous administration via the lateral tail vein. All rats were anaesthetized with 5% isoflurane by chamber induction method to prevent pain and injury during drug administration and blood collection. The blood collection was conducted at 0, 0.083 (5 min), 0.25 (15 min), 0.5 (30 min), 1, 2, 4, 8, 16 and 24 h in unconscious rats. For tissue collection, euthanization with overdose isoflurane > 10% by chamber induction method was conducted at 0.083 (5 min), 1, 2 and 4 h after oral gavage or intravenous administration, and death was confirmed by exsanguination. […] Plasma samples were collected at baseline (0 h) and 24 h from a subset of rats for determination of AST, ALT and creatinine concentrations, performed by Professional Laboratory Management Crop Co., Ltd. Determination of the creatinine level was performed by the chemiluminescence method, while AST and ALT determination was performed with a kinetic method and measured using an automated analyzer (Cobas 6000; Hoffmann–La Roche, Ltd.).
# [8] = system: UGT; design: method as in PMID 3917507; conditions: mice ref 19, cited from earlier work
# [9] = system: UGT; design: method as in PMID 17487234; conditions: cited from earlier work
# [10] = system: P–glycoprotein; design: method as in PMID 12130727; conditions: cited from earlier work
# [11] = intravenous, oxyresveratrol 10 mg/kg (+ piperine 1 mg/kg in combination), postdose (24 h)
# [12] = intravenous, oxyresveratrol 10 mg/kg (+ piperine 1 mg/kg in combination), predose (0 h) baseline
# [13] = oral, oxyresveratrol 100 mg/kg (+ piperine 10 mg/kg in combination), postdose (24 h)
# [14] = oral, oxyresveratrol 100 mg/kg (+ piperine 10 mg/kg in combination), predose (0 h) baseline
smiles,measurement,setting,value
"Oc1cc(O)cc(C=Cc2ccc(O)cc2O)c1 [Oxyresveratrol, 2,4,3′,5′–tetrahydroxystilbene]",Tmax,[1]; po,approximately 15 min
same,Absolute oral bioavailability,[1],10–15%
same,recovery at 100 ng/mL,[2],92.6%
same,recovery at 400 ng/mL,[2],86.3%
same,"recovery at 12 h, 10 ng/mL",[2],63.5%
same,"recovery at 12 h, 100 ng/mL",[2],73.5%
same,"recovery at 12 h, 400 ng/mL",[2],68.2%
same,"recovery at 30 d, 10 ng/mL",[2],72.4%
same,"recovery at 30 d, 100 ng/mL",[2],85.8%
same,"recovery at 30 d, 400 ng/mL",[2],81.1%
same,Kp,"[3]; male, Wistar, in vivo, 100 mg/kg, rat, oral gavage, from 5 min to 4 h, read-out: Tissue to plasma ratio of oxyresveratrol, other internal organs (not stomach, small intestine)",1 to 100
same,Kp at 5 min,"[3]; male, Wistar, rat, in vivo, iv",10 to 100
same,Oxyresveratrol level in the brain,"[3]; rat, 1, 2 and 4 h after intravenous administration",Very low levels
same,Concentration reaching the brain,[4],only a minimal concentration reached the brain
same,dose excreted,"[5]; Wistar, in vivo, iv, Percentage recovery of unchanged oxyresveratrol in urine",5 to 10%
same,Unchanged oxyresveratrol found in feces,[5]; 0 to 48 h after intravenous dosing,< 1%
same,P–glycoprotein substrate,[6],substrate of P–glycoprotein
same,%Recovery (stability),100 ng/mL,72.84%
same,%Recovery (stability),400 ng/mL,70.43%
same,ALT,[7]; [11],5.80 ± 1.09 U/L
same,AST,[7]; [11],45.40 ± 3.78 U/L
same,Creatinine,[7]; [11],0.32 ± 0.08 mg/dL
same,ALT,[7]; [12],5.00 ± 0.00 U/L
same,AST,[7]; [12],42.00 ± 7.15 U/L
same,Creatinine,[7]; [12],0.25 ± 0.15 mg/dL
same,Physical appearance,"[7]; male Wistar rats, pre-dose and post-dose (24 h), i.v. and oral",normal physical appearance
same,ALT,[7]; [13],6.83 ± 3.25 U/L
same,AST,[7]; [13],40.83 ± 22.39 U/L
same,Creatinine,[7]; [13],0.17 ± 0.01 mg/dL
same,ALT,[7]; [14],9.40 ± 9.28 U/L
same,AST,[7]; [14],32.40 ± 16.47 U/L
same,Creatinine,[7]; [14],0.17 ± 0.01 mg/dL
"O=C(/C=C/C=C/c1ccc2c(c1)OCO2)N1CCCCC1 [piperine, Piperine]",Decrease of in vivo UGT activity,[8]; piperine 10 mg/kg p.o.,36%
same,Decrease of in vivo UGT activity,[8]; piperine 25 mg/kg p.o.,55%
same,Hepatic microsomal activity of UGT in vitro,[9],reduces
same,Inhibition of P–glycoprotein,[10],inhibit

# Source: article PMC6720094, “Comparative pharmacokinetics of oxyresveratrol alone and in combination with piperine as a bioenhancer in rats” (BMC Complementary and Alternative Medicine, 2019)
